Experimental data: PMC8617627, “Novel DYRK1A Inhibitor Rescues Learning and Memory Deficits in a Mouse Model of Down Syndrome” (Pharmaceuticals, 2021)
Read-outs that look alike come from different tables or passages of the source.

How the values were obtained:
Assay in all cases: Kinase profile (33P ATP filter binding)
Format in all cases: biochemical
[1] = target: T1, BRSK2 (Homo sapiens, UniProt Q8IWQ3); conditions: read-out: Remaining protein kinase activity
T1 sequence (Q8IWQ3 1-736): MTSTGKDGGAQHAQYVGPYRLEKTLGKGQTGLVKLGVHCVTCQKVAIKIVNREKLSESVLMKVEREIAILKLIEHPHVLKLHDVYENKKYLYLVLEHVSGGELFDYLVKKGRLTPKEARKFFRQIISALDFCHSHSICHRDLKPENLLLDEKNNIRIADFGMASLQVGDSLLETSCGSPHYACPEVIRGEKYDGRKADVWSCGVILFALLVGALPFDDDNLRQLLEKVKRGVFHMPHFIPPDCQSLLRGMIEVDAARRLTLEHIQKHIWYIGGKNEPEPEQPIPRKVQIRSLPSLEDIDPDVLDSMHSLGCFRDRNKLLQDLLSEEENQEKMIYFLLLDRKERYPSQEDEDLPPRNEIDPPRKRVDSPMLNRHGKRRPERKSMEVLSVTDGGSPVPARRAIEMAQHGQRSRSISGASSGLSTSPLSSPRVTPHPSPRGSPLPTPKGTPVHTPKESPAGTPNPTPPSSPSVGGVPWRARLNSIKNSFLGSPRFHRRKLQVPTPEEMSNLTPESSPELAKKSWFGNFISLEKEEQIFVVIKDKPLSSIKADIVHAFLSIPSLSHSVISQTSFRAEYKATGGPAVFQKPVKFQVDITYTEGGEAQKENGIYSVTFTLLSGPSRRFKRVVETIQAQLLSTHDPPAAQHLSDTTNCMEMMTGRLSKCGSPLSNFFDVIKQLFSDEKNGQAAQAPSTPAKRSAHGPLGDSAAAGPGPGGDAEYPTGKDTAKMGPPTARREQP

[2] = target: CAMKKb (Homo sapiens, UniProt Q96RR4); conditions: read-out: Remaining protein kinase activity
[3] = target: IR (Homo sapiens, UniProt P06213); conditions: read-out: Remaining protein kinase activity
[4] = target: JNK2 (Homo sapiens, UniProt P45984)
[5] = target: JNK3 (Homo sapiens, UniProt P53779)
[6] = target: MELK (Homo sapiens, UniProt Q14680); conditions: read-out: Remaining protein kinase activity
[7] = target: PAK5 (Homo sapiens, UniProt Q9P286); conditions: read-out: Remaining protein kinase activity
[8] = tested on: PHK
[9] = target: ROCK 2 (Homo sapiens, UniProt O75116); conditions: read-out: Remaining protein kinase activity
[10] = target: T2, TAO1 (Homo sapiens, UniProt Q7L7X3); conditions: read-out: Remaining protein kinase activity
T2 sequence (Q7L7X3 1-1001): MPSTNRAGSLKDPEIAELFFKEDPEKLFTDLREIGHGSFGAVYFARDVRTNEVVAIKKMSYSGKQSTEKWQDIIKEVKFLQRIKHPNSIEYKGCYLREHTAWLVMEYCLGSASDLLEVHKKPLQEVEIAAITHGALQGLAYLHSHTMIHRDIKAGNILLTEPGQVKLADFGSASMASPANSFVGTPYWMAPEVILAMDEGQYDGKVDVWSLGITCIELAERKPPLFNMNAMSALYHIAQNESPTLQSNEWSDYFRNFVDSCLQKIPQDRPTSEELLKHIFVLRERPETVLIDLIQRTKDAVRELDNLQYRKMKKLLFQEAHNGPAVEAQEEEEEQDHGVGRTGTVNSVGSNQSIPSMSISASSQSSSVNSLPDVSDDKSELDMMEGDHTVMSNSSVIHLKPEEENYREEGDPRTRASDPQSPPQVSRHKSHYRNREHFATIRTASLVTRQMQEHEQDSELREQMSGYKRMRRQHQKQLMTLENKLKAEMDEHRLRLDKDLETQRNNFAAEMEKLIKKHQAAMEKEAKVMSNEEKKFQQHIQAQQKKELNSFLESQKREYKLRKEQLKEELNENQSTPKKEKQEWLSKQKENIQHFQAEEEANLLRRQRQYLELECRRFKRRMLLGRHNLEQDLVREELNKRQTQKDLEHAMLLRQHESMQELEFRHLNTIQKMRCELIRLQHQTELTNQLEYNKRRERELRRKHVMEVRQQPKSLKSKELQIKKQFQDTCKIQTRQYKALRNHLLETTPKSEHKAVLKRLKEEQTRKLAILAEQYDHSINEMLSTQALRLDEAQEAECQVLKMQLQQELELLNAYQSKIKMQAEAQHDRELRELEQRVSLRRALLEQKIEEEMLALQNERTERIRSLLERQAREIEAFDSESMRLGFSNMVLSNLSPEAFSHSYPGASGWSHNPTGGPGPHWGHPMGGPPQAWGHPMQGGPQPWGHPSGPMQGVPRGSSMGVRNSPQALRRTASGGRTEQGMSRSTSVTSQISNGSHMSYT

[11] = target: TTBK1 (Homo sapiens, UniProt Q5TCY1); conditions: read-out: Remaining protein kinase activity
Sequence of TTBK1 (Q5TCY1 whole entry): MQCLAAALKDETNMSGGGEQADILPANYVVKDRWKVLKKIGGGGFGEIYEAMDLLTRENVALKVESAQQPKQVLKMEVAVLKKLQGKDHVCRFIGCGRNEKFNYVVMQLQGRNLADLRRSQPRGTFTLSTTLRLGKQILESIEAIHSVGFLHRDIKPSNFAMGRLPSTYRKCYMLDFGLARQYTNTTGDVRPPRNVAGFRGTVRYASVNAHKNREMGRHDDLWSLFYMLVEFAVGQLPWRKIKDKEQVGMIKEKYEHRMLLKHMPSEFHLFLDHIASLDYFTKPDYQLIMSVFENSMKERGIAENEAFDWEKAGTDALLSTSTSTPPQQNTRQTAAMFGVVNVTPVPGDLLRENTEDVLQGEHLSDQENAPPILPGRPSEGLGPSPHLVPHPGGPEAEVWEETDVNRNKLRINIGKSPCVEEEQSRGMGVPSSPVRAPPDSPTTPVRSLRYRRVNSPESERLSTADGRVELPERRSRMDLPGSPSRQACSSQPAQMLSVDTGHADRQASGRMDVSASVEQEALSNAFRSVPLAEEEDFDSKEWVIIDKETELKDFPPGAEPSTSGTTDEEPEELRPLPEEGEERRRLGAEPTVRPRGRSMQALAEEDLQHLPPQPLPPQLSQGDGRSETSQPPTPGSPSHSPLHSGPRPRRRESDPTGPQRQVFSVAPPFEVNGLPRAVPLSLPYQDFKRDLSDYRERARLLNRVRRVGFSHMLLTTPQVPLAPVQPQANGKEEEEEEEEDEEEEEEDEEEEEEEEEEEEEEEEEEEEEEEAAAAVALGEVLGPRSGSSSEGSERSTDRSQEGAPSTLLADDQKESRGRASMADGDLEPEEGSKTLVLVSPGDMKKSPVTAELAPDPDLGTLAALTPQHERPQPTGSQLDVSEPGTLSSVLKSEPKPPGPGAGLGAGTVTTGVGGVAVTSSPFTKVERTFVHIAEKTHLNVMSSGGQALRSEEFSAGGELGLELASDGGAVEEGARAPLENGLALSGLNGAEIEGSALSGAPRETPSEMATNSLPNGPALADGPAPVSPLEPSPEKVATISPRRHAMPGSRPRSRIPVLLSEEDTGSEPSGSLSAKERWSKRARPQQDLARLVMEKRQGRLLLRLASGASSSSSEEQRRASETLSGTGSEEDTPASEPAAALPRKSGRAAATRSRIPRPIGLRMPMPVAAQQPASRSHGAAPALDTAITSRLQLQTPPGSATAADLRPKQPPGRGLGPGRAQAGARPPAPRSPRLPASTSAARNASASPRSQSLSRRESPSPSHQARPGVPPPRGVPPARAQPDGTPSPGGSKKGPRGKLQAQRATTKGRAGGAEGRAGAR

Sequence of JNK3 (P53779 whole entry, species assumed): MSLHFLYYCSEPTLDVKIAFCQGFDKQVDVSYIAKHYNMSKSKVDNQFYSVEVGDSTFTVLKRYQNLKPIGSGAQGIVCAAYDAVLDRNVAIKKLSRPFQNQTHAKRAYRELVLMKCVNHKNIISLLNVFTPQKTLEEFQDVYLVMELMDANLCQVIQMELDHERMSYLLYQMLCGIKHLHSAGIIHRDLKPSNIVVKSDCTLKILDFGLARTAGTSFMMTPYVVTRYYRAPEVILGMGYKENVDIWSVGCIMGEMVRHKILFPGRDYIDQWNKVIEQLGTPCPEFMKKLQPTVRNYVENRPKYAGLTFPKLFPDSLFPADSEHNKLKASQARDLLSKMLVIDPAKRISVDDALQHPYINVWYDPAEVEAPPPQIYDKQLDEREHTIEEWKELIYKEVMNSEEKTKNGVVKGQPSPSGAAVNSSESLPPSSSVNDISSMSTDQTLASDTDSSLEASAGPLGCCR
Sequence of MELK (Q14680 whole entry): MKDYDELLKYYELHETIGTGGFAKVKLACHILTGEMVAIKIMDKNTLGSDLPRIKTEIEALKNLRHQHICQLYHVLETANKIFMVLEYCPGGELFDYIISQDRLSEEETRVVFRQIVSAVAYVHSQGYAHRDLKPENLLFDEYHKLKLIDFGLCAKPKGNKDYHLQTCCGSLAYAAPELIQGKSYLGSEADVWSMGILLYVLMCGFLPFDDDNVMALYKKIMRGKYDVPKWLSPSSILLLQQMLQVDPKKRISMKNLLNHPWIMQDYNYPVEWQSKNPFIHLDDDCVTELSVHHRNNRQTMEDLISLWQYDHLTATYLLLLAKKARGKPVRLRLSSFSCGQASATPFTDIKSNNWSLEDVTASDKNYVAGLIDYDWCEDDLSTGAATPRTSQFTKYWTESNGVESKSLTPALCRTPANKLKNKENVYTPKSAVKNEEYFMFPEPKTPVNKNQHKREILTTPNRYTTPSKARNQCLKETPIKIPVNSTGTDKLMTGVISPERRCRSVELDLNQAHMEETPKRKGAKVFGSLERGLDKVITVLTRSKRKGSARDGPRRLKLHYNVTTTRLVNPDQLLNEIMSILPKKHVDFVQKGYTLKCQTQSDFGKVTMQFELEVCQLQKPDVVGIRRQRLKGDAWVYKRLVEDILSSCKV
Sequence of IR (P06213 28-1382): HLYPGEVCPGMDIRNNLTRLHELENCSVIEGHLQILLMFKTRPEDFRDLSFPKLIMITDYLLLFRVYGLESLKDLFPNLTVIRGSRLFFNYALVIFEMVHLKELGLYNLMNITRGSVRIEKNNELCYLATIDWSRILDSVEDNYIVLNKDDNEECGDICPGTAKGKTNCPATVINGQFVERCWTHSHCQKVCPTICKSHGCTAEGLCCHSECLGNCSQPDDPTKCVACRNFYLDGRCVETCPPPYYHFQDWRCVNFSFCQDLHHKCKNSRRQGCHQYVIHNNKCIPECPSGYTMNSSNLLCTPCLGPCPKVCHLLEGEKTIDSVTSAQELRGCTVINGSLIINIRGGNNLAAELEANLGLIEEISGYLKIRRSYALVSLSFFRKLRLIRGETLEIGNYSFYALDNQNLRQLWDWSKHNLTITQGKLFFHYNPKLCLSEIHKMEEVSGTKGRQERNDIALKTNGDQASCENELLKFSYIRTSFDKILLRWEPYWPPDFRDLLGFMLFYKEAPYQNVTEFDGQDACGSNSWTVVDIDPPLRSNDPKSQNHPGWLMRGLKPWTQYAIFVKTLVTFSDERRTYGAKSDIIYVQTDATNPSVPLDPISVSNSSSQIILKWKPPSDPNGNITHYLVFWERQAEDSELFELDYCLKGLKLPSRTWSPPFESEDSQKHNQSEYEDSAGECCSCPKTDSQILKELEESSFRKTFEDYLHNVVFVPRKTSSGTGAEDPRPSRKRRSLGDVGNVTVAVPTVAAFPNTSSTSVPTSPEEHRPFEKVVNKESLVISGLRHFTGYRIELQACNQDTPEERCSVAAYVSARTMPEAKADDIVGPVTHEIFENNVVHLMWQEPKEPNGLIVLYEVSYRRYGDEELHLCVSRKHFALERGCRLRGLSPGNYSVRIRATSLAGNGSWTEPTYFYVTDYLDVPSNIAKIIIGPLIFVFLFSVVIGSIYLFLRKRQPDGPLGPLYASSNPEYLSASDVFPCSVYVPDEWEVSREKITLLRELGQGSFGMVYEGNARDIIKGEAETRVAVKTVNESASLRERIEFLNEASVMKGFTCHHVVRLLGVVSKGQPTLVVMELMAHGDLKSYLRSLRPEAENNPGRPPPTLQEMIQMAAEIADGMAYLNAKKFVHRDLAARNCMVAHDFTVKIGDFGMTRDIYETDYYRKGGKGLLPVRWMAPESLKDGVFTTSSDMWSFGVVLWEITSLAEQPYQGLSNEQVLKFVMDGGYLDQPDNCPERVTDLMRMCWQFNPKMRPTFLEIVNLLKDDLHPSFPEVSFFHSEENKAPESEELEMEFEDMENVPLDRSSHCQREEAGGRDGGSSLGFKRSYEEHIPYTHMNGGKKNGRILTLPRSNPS
Sequence of CAMKKb (Q96RR4 whole entry): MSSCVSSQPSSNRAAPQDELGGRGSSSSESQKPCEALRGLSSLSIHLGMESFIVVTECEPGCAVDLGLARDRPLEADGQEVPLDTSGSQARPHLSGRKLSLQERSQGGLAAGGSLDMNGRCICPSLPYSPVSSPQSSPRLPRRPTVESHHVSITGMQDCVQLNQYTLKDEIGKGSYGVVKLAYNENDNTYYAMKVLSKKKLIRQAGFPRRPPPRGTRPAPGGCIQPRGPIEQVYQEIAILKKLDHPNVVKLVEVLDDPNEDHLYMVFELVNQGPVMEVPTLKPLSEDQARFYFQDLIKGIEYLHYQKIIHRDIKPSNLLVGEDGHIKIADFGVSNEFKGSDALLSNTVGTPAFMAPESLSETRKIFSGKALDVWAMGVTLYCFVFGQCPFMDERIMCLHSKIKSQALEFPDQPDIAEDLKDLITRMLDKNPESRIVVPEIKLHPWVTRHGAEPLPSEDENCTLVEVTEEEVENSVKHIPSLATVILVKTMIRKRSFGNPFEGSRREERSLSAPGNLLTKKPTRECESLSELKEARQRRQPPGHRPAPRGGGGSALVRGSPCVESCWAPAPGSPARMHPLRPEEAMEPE
Sequence of PAK5 (Q9P286 whole entry): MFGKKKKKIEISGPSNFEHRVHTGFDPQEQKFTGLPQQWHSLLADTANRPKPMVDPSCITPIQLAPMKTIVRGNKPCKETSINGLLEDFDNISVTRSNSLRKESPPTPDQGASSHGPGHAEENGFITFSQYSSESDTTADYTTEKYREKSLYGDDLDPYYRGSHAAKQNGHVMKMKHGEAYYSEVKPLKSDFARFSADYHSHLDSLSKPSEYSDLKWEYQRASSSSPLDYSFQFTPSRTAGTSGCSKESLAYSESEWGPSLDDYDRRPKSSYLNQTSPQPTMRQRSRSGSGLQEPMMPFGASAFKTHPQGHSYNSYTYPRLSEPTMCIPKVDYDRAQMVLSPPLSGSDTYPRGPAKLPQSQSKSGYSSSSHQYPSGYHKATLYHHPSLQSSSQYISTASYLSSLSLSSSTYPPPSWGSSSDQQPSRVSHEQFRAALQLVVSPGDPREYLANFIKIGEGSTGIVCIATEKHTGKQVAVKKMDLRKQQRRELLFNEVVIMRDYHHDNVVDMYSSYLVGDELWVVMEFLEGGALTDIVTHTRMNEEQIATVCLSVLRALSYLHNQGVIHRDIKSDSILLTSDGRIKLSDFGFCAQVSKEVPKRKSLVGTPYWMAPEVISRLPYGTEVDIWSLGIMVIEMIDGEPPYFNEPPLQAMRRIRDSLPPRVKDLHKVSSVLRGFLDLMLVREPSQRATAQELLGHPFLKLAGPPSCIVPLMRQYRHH

In the case of COc1ccc2sc(-c3cncc(N)c3)nc2c1 [compound 1, 5-(5-Methoxybenzo[d]thiazol-2-yl)pyridin-3-amine], the remaining activity at 1 µM ([1]; BRSK2, 1 μM) was 125%, the remaining activity at 100 µM ([1]; BRSK2, 100 μM) was 53% and the remaining activity at 1 µM ([2]; CAMKKb, 1 μM) was 107%. It also gave a remaining activity at 100 µM ([2]; CAMKKb, 100 μM) of 37%, a remaining activity at 1 µM ([3]; IR, 1 μM) of 108% and a remaining activity at 100 µM ([3]; IR, 100 μM) of 45%. For the same compound, the “Remaining protein kinase activity” value ([4]; 1 μM) was 123%, the “Remaining protein kinase activity” value ([4]; 100 μM) was 104% and the “Remaining protein kinase activity” value ([5]; 1 μM) was 125%. For the same compound, the “Remaining protein kinase activity” value ([5]; 100 μM) was 61%, the remaining activity at 1 µM ([6]; MELK, 1 μM) was 96% and the remaining activity at 100 µM ([6]; MELK, 100 μM) was 12%. The remaining activity at 1 µM ([7]; PAK5, 1 μM) was 111%, the remaining activity at 100 µM ([7]; PAK5, 100 μM) was 70% and the “Remaining protein kinase activity” value ([8]; 1 μM) was 101%. The “Remaining protein kinase activity” value ([8]; 100 μM) was 52%, the remaining activity at 1 µM ([9]; ROCK 2, 1 μM) was 108% and the remaining activity at 100 µM ([9]; ROCK 2, 100 μM) was 5%. The remaining activity at 1 µM ([10]; TAO1, 1 μM) was 97%, the remaining activity at 100 µM ([10]; TAO1, 100 μM) was 57% and the remaining activity at 1 µM ([11]; TTBK1, 1 μM) was 109%. For the same compound, the remaining activity at 100 µM ([11]; TTBK1) was 90%.
In the case of COc1ccc2sc(-c3cncc(NC(C)=O)c3)nc2c1 [PST-001, N-(5-(5-Methoxybenzo[d]thiazol-2-yl)pyridin-3-yl)acetamide], the remaining activity at 1 µM [1] was 128%, the remaining activity at 100 µM [1] was 125% and the remaining activity at 1 µM [2] was 104%. The remaining activity at 100 µM [2] was 54%, the remaining activity at 1 µM [3] was 116% and the remaining activity at 100 µM [3] was 120%. For the same compound, the “Remaining protein kinase activity” value ([4]; 1 μM) was 126%, the “Remaining protein kinase activity” value ([4]; 100 μM) was 129% and the “Remaining protein kinase activity” value ([5]; 1 μM) was 127%. For the same compound, the “Remaining protein kinase activity” value ([5]; 100 μM) was 122%, the remaining activity at 1 µM [6] was 99% and the remaining activity at 100 µM [6] was 44%. For the same compound, the remaining activity at 1 µM [7] was 113%, the remaining activity at 100 µM [7] was 129% and the “Remaining protein kinase activity” value ([8]; 100 μM) was 83%. For the same compound, the remaining activity at 1 µM [9] was 110%, the remaining activity at 100 µM [9] was 64% and the remaining activity at 1 µM [10] was 102%. It also gave a remaining activity at 100 µM [10] of 111%, a remaining activity at 100 µM ([11]; TTBK1) of 110% and a remaining activity at 1 µM [11] of 109%.
